Converted amounts (≈) assume the structure as drawn. *1 amine or outer side, *2 acyl side, *3 side chain or, on linkers, in order; H or OH if unused. Where a SMILES comes first, the peptide text is derived from it. [ ]: non-standard residue; d: D form. The star is where a group is joined. X9 = NC(=O)CC[C@H](N*)C(=O)CCCCCCCCCCCCCCCCCC(=O)O; β2hAla(2S) = C[C@@H](CN[*:1])C(=O)[*:2]; X4 = CCCC[C@H](O[*:1])C(=O)[*:2]; hLys = NCCCCC[C@H](N)C(=O)O; Nle = CCCC[C@H](N)C(=O)O; Orn = NCCC[C@H](N)C(=O)O
Experiments:
[1] = Stability in human plasma assessed as parent compound remaining level at 5 uM remaining after 4 hrs; type: ADME, cell-free; conditions: read-out: Stabilty
[2] = Aqueous solubility of compound in acetate buffer at pH 4.5 measured after 24 hrs by UPLC analysis; type: physicochemical
[3] = Aqueous solubility of compound in phosphate buffer at pH 7.4 measured after 24 hrs by UPLC analysis; type: physicochemical
[4] = biological target: T1, Relaxin receptor 1 (Homo sapiens, UniProt Q9HBX9); experiment: Agonist activity at RXFP1 endogenously expressed in human OVCAR-5 cells assessed as increase in IBMX-induced cAMP accumulation pretreated with IBMX for 40 mins followed by compound addition and measured after 30 mins by HTRF assay; type: functional, cell-based
T1 sequence (Q9HBX9 whole entry): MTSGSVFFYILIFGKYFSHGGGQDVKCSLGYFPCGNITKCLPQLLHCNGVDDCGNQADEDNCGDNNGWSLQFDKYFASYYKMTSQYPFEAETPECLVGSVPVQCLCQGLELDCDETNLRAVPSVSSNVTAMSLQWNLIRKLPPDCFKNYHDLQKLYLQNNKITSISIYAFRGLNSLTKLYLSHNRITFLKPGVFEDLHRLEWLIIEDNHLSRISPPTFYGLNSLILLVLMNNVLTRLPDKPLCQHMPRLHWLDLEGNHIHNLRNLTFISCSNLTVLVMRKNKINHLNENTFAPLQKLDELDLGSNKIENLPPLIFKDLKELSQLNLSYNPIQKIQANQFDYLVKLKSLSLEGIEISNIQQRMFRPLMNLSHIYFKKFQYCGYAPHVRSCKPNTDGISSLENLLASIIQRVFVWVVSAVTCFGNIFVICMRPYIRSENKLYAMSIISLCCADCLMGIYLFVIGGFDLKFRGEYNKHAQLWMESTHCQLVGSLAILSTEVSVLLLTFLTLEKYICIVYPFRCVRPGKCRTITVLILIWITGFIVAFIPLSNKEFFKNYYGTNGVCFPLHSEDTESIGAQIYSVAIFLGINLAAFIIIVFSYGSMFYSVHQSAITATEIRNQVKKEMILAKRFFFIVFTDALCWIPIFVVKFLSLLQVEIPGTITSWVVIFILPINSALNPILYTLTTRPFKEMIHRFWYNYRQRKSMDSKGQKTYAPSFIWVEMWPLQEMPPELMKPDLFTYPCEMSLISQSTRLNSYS

[5] = Stability in rat plasma assessed as parent compound remaining level at 5 uM remaining after 4 hrs; type: ADME, cell-free; conditions: read-out: Stabilty
[6] = biological target: T2, Relaxin receptor 1 (Homo sapiens) (UniProt Q9HBX9); experiment: Agonist activity at RXFP1 endogenously expressed in human OVCAR-5 cells assessed as increase in IBMX-induced cAMP accumulation pretreated with IBMX for 40 mins followed by compound addition and measured after 30 mins by HTRF assay relative to relaxin; type: functional, cell-based; conditions: filed as agonist
T2 sequence (whole entry): T1 sequence (Q9HBX9 whole entry)

[7] = biological target: T1, Relaxin receptor 1; experiment: Agonist activity at RXFP1 endogenously expressed in human OVCAR-5 cells assessed as increase in IBMX-induced cAMP accumulation pretreated with IBMX for 40 mins followed by compound addition and measured after 30 mins in presence of 2 % HSA by HTRF assay; type: functional, cell-based

Row | Compound | remaining at 4 h, 5 µM [1] [%] | solubility at 24 h [2] [µg/mL] | solubility at 24 h [3] [µg/mL] | EC50 [4] [nM] | remaining at 4 h, 5 µM [5] [%] | Emax [6] [%] | EC50 [7] [nM]
1 | CC[C@H](C)[C@H](NC(=O)[C@H](CCC(N)=O)NC(=O)[C@H](C)NC(=O)[C@H](CCCNC(=N)N)NC(=O)[C@@H](NC(=O)[C@H](CCCCN)NC(=O)[C@H](CCC(=O)O)NC(=O)[C@H](CCCNC(=N)N)NC(=O)CNC(=O)[C@H](CCC(=O)O)NC(=O)[C@H](CC(C)C)NC(C)=O)C(C)C)C(=O)NC[C@H](C)C(=O)NC[C@H](C)C(=O)N[C@@H](CCC(=O)O)C(=O)NCC(=O)N[C@@H](CCSC)C(=O)N[C@@H](CO)C(=O)N[C@H](C(=O)N[C@@H](Cc1c[nH]c2ccccc12)C(=O)N[C@@H](CO)C(=O)NC[C@H](C)C(=O)N[C@@H](CCCNC(=N)N)C(=O)N[C@@H](CCCCN)C(=O)N[C@@H](CCCCN)C(N)=O)[C@@H](C)O (Ac-LEGREKVRAQI[β2hAla(2S)][β2hAla(2S)]EGMSTWS[β2hAla(2S)]RKK-NH2) | 93 | 6100 (≈ 2190 µM) | 5800 (≈ 2080 µM) | 14 | 101 | 99 | 
2 | CC[C@H](C)[C@H](NC[C@@H](C)CNC(=O)[C@@H](NC(=O)[C@H](CCC(N)=O)NC(=O)[C@H](C)NC(=O)[C@H](CCCNC(=N)N)NC(=O)[C@@H](NC(=O)[C@H](CCCCN)NC(=O)[C@H](CCC(=O)O)NC(=O)[C@H](CCCNC(=N)N)NC(=O)CNC(=O)[C@H](CCC(=O)O)NC(=O)[C@H](CC(C)C)NC(=O)[C@H](CCCCN)NC(=O)[C@@H](NC(=O)[C@@H](NC(C)=O)C(C)C)[C@@H](C)CC)C(C)C)[C@@H](C)CC)C(=O)N[C@@H](CCC(=O)O)C(=O)NCC(=O)N[C@@H](CCSC)C(=O)N[C@@H](CO)C(=O)N[C@@H](CCCCN)C(=O)N[C@@H](Cc1c[nH]c2ccccc12)C(=O)N[C@@H](CO)C(=O)N[C@@H](CCCCN)C(=O)N[C@@H](CCCNC(=N)N)C(=O)N[C@@H](CCCCN)C(=O)N[C@@H](CCCCN)C(N)=O | 79 | 4800 (≈ 1490 µM) | 3800 (≈ 1180 µM) | 54 | 29 | 95 | 
3 | CCCC[C@H](NC(=O)[C@H](CCSC)NC(=O)CNC(=O)[C@H](CCC(=O)O)NC(=O)[C@@H](C)CNC(=O)[C@@H](C)CNC(=O)[C@@H](NC(=O)[C@H](CCCCCNC(C)=O)NC(=O)[C@H](CCCCN)NC(=O)[C@H](C)NC(=O)[C@H](CCCNC(=N)N)NC(=O)[C@@H](NC(=O)[C@H](CCCCN)NC(=O)[C@H](CCC(=O)O)NC(=O)[C@H](CCCNC(=N)N)NC(=O)[C@H](CCC(=O)O)NC(=O)CNC(=O)[C@H](CCC(=O)O)NC(=O)[C@H](CC(C)C)NC(C)=O)C(C)C)[C@@H](C)CC)C(=O)N[C@@H](CCCCN)C(=O)N[C@@H](CCCCCNC(C)=O)C(=O)N[C@@H](CO)C(=O)N[C@H](C(=O)N[C@@H](Cc1c[nH]c2ccccc12)C(=O)N[C@@H](CO)C(=O)NC[C@H](C)C(=O)N[C@@H](CCCNC(=N)N)C(=O)N[C@@H](CCCCN)C(=O)N[C@@H](CCCCN)C(=O)N[C@@H](CCCCCNC(C)=O)C(=O)N[C@@H](CCCCN)C(=O)N[C@@H](CCC(=O)O)C(=O)N[C@@H](CCC(=O)O)C(=O)N[C@@H](CCC(N)=O)C(=O)CCCCCCCCCCCCCCCCCC(=O)O)[C@@H](C)O (Ac-LEGEREKVRAK[hLys](Ac)I[β2hAla(2S)][β2hAla(2S)]EGM[Nle]K[hLys](Ac)STWS[β2hAla(2S)]RKK[hLys](Ac)KEE-X9) |  |  |  | 368 |  | 75 | > 2000
4 | CCCC[C@H](OC(=O)CNC(=O)[C@H](CCC(=O)O)NC(=O)[C@@H](C)CNC(=O)[C@@H](C)CNC(=O)[C@@H](NC(=O)[C@H](CCCCCNC(C)=O)NC(=O)[C@@H](C)CNC(=O)[C@@H](C)CNC(=O)[C@H](CCCCN)NC(=O)[C@H](C)NC(=O)[C@H](CCCNC(=N)N)NC(=O)[C@@H](NC(=O)[C@H](CCCCN)NC(=O)[C@H](CCC(=O)O)NC(=O)[C@H](CCCNC(=N)N)NC(=O)CNC(=O)[C@H](CCC(=O)O)NC(=O)[C@H](CC(C)C)NC(C)=O)C(C)C)[C@@H](C)CC)C(=O)N[C@@H](CO)C(=O)N[C@H](C(=O)N[C@@H](Cc1c[nH]c2ccccc12)C(=O)N[C@@H](CO)C(=O)NC[C@H](C)C(=O)N[C@@H](CCCNC(=N)N)C(=O)N[C@@H](CCCCN)C(=O)N[C@@H](CCCN)C(=O)N[C@@H](CCCCCNC(C)=O)C(N)=O)[C@@H](C)O (Ac-LEGREKVRAK[β2hAla(2S)][β2hAla(2S)][hLys](Ac)I[β2hAla(2S)][β2hAla(2S)]EG[X4]STWS[β2hAla(2S)]RK[Orn][hLys](Ac)-NH2) | 74 | 4000 (≈ 1210 µM) | 4000 (≈ 1210 µM) | 18 | 60 | 93 | 
5 | CC[C@H](C)[C@H](NC(=O)[C@H](CCC(N)=O)NC(=O)[C@H](C)NC(=O)[C@H](CCCNC(=N)N)NC(=O)[C@@H](NC(=O)[C@H](CCCCN)NC(=O)[C@H](CCC(=O)O)NC(=O)[C@H](CCCNC(=N)N)NC(=O)CNC(=O)[C@H](CCC(=O)O)NC(=O)[C@H](CC(C)C)NC(=O)[C@H](CCCCN)NC(=O)[C@@H](NC(=O)[C@@H](NC(=O)[C@H](CCC(=O)O)NC(=O)[C@H](CCC(=O)O)NC(C)=O)C(C)C)[C@@H](C)CC)C(C)C)C(=O)NC[C@H](C)C(=O)NC[C@H](C)C(=O)N[C@@H](CCC(=O)O)C(=O)NCC(=O)N[C@@H](CCSC)C(=O)N[C@@H](CO)C(=O)N[C@H](C(=O)N[C@@H](Cc1c[nH]c2ccccc12)C(=O)N[C@@H](CO)C(=O)NC[C@H](C)C(=O)N[C@@H](CCCNC(=N)N)C(=O)N[C@@H](CCCCN)C(=O)N[C@@H](CCCCN)C(N)=O)[C@@H](C)O (Ac-EEVIKLEGREKVRAQI[β2hAla(2S)][β2hAla(2S)]EGMSTWS[β2hAla(2S)]RKK-NH2) | 80 | 2800 (≈ 827 µM) | 2400 (≈ 709 µM) | 17.8 | 60 | 99 | 
6 | CC[C@H](C)[C@H](NC(=O)[C@H](CCC(N)=O)NC(=O)[C@H](C)NC(=O)[C@H](CCCNC(=N)N)NC(=O)[C@@H](NC(=O)[C@H](CCCCN)NC(=O)[C@H](CCC(=O)O)NC(=O)[C@H](CCCNC(=N)N)NC(=O)CNC(=O)[C@H](CCC(=O)O)NC(=O)[C@H](CC(C)C)NC(=O)[C@H](CCCCN)NC(=O)[C@@H](NC(=O)[C@@H](NC(C)=O)C(C)C)[C@@H](C)CC)C(C)C)C(=O)NC[C@H](C)C(=O)NC[C@H](C)C(=O)N[C@@H](CCC(=O)O)C(=O)NCC(=O)N[C@@H](CCSC)C(=O)N[C@@H](CO)C(=O)N[C@@H](CCCCN)C(=O)N[C@@H](Cc1c[nH]c2ccccc12)C(=O)N[C@@H](CO)C(=O)N[C@@H](CCCCN)C(=O)N[C@@H](CCCNC(=N)N)C(=O)N[C@@H](CCCCN)C(=O)N[C@@H](CCCCN)C(N)=O (HELM PEPTIDE1{[ac].V.I.K.L.E.G.R.E.K.V.R.A.Q.I.[C[C@@H](CN[*:1])C(=O)[*:2]].[C[C@@H](CN[*:1])C(=O)[*:2]].E.G.M.S.K.W.S.K.R.K.K.[am]}$$$$V2.0) | 58 | 5100 (≈ 1600 µM) | 5300 (≈ 1660 µM) | 17 | 37 | 99 | 
7 | H-VIKLSGRELVRAQIAISGMSTWSKRSL-NH2 | 3 | 1900 | 14 |  | 2 |  | 
8 | CC[C@H](C)[C@H](NC(=O)[C@H](CCC(N)=O)NC(=O)[C@H](C)NC(=O)[C@H](CCCNC(=N)N)NC(=O)[C@@H](NC(=O)[C@H](CC(C)C)NC(=O)[C@H](CCC(=O)O)NC(=O)[C@H](CCCNC(=N)N)NC(=O)CNC(=O)[C@H](CO)NC(=O)[C@H](CC(C)C)NC(=O)[C@H](CCCCN)NC(=O)[C@@H](NC(=O)[C@@H](NC(C)=O)C(C)C)[C@@H](C)CC)C(C)C)C(=O)NC[C@H](C)C(=O)N[C@H](C(=O)N[C@@H](CO)C(=O)NCC(=O)N[C@@H](CCSC)C(=O)N[C@@H](CO)C(=O)N[C@H](C(=O)N[C@@H](Cc1c[nH]c2ccccc12)C(=O)N[C@@H](CO)C(=O)N[C@@H](CCCCN)C(=O)N[C@@H](CCCNC(=N)N)C(=O)N[C@@H](CCCCN)C(=O)N[C@@H](CCCCN)C(N)=O)[C@@H](C)O)[C@@H](C)CC (HELM PEPTIDE1{[ac].V.I.K.L.S.G.R.E.L.V.R.A.Q.I.[C[C@@H](CN[*:1])C(=O)[*:2]].I.S.G.M.S.T.W.S.K.R.K.K.[am]}$$$$V2.0) | 54 | 5700 (≈ 1840 µM) | 4600 (≈ 1480 µM) | 202 | 37 | 90 | 
